Data: publication PMC7763008, “Antimicrobial, Anticancer and Multidrug-Resistant Reversing Activity of Novel Oxygen-, Sulfur- and Selenoflavones and Bioisosteric Analogues” (Pharmaceuticals, 2020)
Read-outs that look alike come from different tables or passages of the source.

What was measured:
S. feltiae = assay: Nematicidal activity assay; type: in vivo; details: Steinernema feltiae; for viability at 200 µM: read-out: Viability of the nematodes; for IC50: in Figure 2
Protocol: The soil nematodes S. feltiae were freshly purchased for experiment from Sautter and Stepper GmbH (Ammerbuch, Germany) and stored at 4 °C in the dark. The assay was performed according to the protocols described in the literature. Results were expressed as mean ± standard deviation (SD) and their statistical significance values were determined by one-way ANOVA followed by Tukey’s multiple comparison test. To consider data statistically significant, the p value should be ≤ 0.05.

[1] = test system: Colo 320/MDR-LRP human colonic adenocarcinoma cell line (multidrug resistant); assay: MTT cytotoxic activity assay, Colo 320; type: cell-based
Description: (§1) Three cell lines have been used in this work: (i), the doxorubicin-sensitive Colo 205 (ATCC-CCL-222) human colonic adenocarcinoma cell line; (ii) the multidrug resistant Colo 320/MDR-LRP expressing P-gp (MDR1)-LRP (ATCC-CCL-220.1) human colonic adenocarcinoma cell line; and the MRC-5 human embryonal lung fibroblast cell line (ATCC CCL-171). The three cell lines were purchased from LGC Promochem, Teddington, UK.
(§2) Colo 205 (ATCC-CCL-222) and Colo 320/MDR-LRP expressing P-gp (MDR1)-LRP (ATCC-CCL-220.1 human colon adenocarcinoma cell lines. As previously described, the cells were cultured in RPMI 1640 medium supplemented with 10% heat-inactivated fetal bovine serum, 2 mM L-glutamine, 1 mM Na-pyruvate, and 100 mM Hepes. The cell lines were incubated at 37 °C, in a 5% CO2, 95% air atmosphere. The semi-adherent human colon cancer cells were detached with Trypsin-Versene (EDTA) solution for 5 min at 37 °C [20].
(§3) The influence of synthetic flavonoid derivatives (compounds 1–6) on the doxorubicin-sensitive Colo 205, multidrug resistant Colo 320/MDR-LRP adenocarcinoma and MRC-5 cell lines was evaluated employing the MTT metabolic activity assay, using a procedure described in Supplementary Materials and in previous works, and applying the appropriate formulas to calculate the cell growth inhibition and the selectivity index (SI), as well as the criterion to determine whether a compound is strongly or moderately selective.
(§4) Briefly, the serial dilutions in culture medium required for the MTT metabolic assay (ranging from 100 to 0.195 µM) were freshly prepared before the assay. The stock solutions (10 mM) of the tested compounds were prepared in pure DMSO and the final concentration of DMSO was adjusted to less than 1% threshold in the biological experiments. The concentration-dependent growth inhibition was evaluated in 96-well flat-bottomed microtiter plates. Doxorubicin (DOXO) was employed as a positive control whilst culture medium containing cells was used as a negative control.
(§5) In the case of the colonic adenocarcinoma cells, two-fold serial dilutions of the flavone compounds were prepared in 100 μL of RPMI 1640, horizontally. Furthermore, the semi-adherent colonic adenocarcinoma cells were treated with Trypsin-Versene (EDTA) solution. Then, cells were adjusted to a density of 5 × 10^3/well for antiproliferative assay and 1 × 10^4/well for the estimation of cytotoxic activity in 100 µL of medium. The cells were added to each well except to the medium control wells. The culture plates were subsequently incubated at 37 °C for 24 h and 72 h, respectively; 20 μL of MTT solution (thiazolyl blue tetrazolium bromide, Sigma) were added to each well from MTT stock solution (5 mg /mL) after incubation. After 4 h of incubation at 37 °C, 100 μL of sodium dodecyl sulfate (SDS) solution (10% in 0.01 M HCl) was added to each well and all plates were incubated at 37 °C overnight. Finally, cell growth was determined by measuring the optical density (OD) at 540 nm (ref. 630 nm) with Multiscan EX ELISA reader (Thermo Labsystems, Cheshire, WA, USA).
(§6) The inhibition of the cell growth was determined according to the formula mentioned elsewhere. Finally, the cell viability and IC50 values for every tested compound and doxorubicin were calculated using GraphPad Prism, version 5.03.

[2] = test system: Colo 205 human colonic adenocarcinoma cell line (doxorubicin-sensitive); assay: MTT cytotoxic activity assay, Colo 205; type: cell-based; details: COLO 205, read-out: Cytotoxic activity, A—Colo 205 IC50
Description: as §1, §2, §3, §4, §5, §6

[3] = molecular target: P-gp (ABCB1) efflux pump in MDR Colo 320 colon adenocarcinoma cells (Homo sapiens, UniProt P08183); assay: Rhodamine 123 accumulation assay (MDR efflux pump inhibition, flow cytometry); details: for FAR (fluorescence activity ratio): MDR Colo 320 vs sensitive Colo 205; for FAR Quotient (%): FAR of compound / FAR of verapamil (20 μM) x 100; for Increase in efflux pump inhibitory activity of naphthyl vs corresponding phenyl derivative: naphthyl-substituted vs phenyl-substituted chalcogen flavone, 20 µM data
Protocol: The P-glycoprotein (P-gp) inhibitory properties of the tested flavone derivatives were evaluated in a rhodamine R123 accumulation assay in two different concentrations.
This is a fluorescence-based detection assay which uses verapamil as a reference inhibitor of P-gp efflux pump. […] Compounds (1 μL and 10 μL from a stock solution of 1 mM) were added to the medium to achieve solutions with final concentrations of 2 μM and 20 μM respectively, followed by incubation of the sample for 10 min at room temperature. […] The fluorescence intensity of the cell population was measured with a Partec CyFlow flow cytometer (Partec, Munster, Germany). Verapamil (20 μM) was employed as a positive control. […] The fluorescence activity ratio (FAR) was calculated employing the following equation [20, 26]:FAR = (MDRtreated/MDRcontrol)/(sensitivetreated/ sensitivecontrol)(1)
FAR Quotient % was calculated as follows:Quotient = (FARcompound/FARverapamil) × 100(2)

Escherichia coli = assay: Antibacterial growth assay, E. coli; type: cell-based; details: highest concentration (200 µM; not restated for E. coli)
Protocol: (§7) The antimicrobial activities of the compounds were determined according to the protocol described in the literature, employing a Universal Microplate Reader, EL800, Biotech Instruments, Inc. Highland Park, Winooski, VT, USA [23, 24, 25].
(§8) In short words, compounds were dissolved in DMSO and later diluted in the adequate growth media to be evaluated at the final concentrations of 50, 100, 150, and 200 µM. Nutrient Luria Bertani (LB) broth, bacterial basic media, Sabouraud Dextrose (SD), and Yeast Peptone Dextrose (YPD) were exploited as media for Escherichia coli, Staphylococcus carnosus, Candida albicans, and Saccharomyces cerevisiae, respectively. In all cases, the final concentration of DMSO was 1% or less. A mixture of penicillin, streptomycin, and amphotericin B (4 U, 0.4 µg/mL and 10 µg/mL, respectively) was employed as positive control for S. carnosus and E. coli, while ketoconazole was utilized as the positive control for C. albicans and S. cerevisiae. The untreated culture in medium was employed as the negative control for each organism; 1% DMSO stock solution was used as a solvent control. All experiments were performed in triplicates and on three independent occasions (n = 9).

[4] = test system: Colo 205 human colonic adenocarcinoma cell line (doxorubicin-sensitive); assay: MTT antiproliferative activity assay, Colo 205; type: cell-based; details: 5 × 10^3 cells/well
Description: as §1, §2, §3, §4, §5, §6

[5] = test system: Colo 320/MDR-LRP human colonic adenocarcinoma cell line (multidrug resistant); assay: MTT antiproliferative activity assay, Colo 320; type: cell-based; details: 5 × 10^3 cells/well, read-out: Antiproliferative activity, B—Colo 320 IC50
Description: as §1, §2, §3, §4, §5, §6

[6] = MTT cytotoxic activity assay, MRC-5; type: cell-based; details: human
Description: as §1
MRC-5 human embryonal lung fibroblast cell line (ATCC CCL-171). As previously described, the cells were cultured in Eagle’s Minimal Essential Medium (EMEM, containing 4.5 g/L of glucose) supplemented with a non-essential amino acid mixture, a selection of vitamins and 10% heat-inactivated fetal bovine serum. The cell lines were incubated at 37 °C, in a 5% CO2, 95% air atmosphere.
as §3, §4
Prior to the experiments, the adherent human embryonal lung fibroblasts (MRC-5) were cultured in flat-bottomed microtiter 96-well plates in an EMEM media supplemented with 10% heat-inactivated fetal bovine serum. Cells were seeded at a density of 10.000 cells per well for 24 h before the beginning of the experiment. The cells were cultured at 37 °C in the humidified cell incubator with the 5% of CO2 and 95% air environment. The medium was subsequently removed from the plates containing the cells, and the dilutions of tested compounds, previously made in a separate micro-titration plate, were added to the cells (at final volume equal to 200 μL).
as §6

Staphylococcus carnosus = assay: Antibacterial growth assay, S. carnosus; type: cell-based; details: highest concentration of 200 µM
Protocol: as §7, §8

[7] = COLO 320, read-out: Cytotoxic activity, B—Colo 320 IC50
[8] = MTT, 1 × 10^4 cells/well, Colo 320, read-out: Cytotoxic activity, B—Colo 320 IC50
[9] = MTT, MRC-5 normal lung fibroblasts, read-out: Cytotoxic activity, C—MRC-5 IC50

P-gp (ABCB1) efflux pump in MDR Colo 320 colon adenocarcinoma cells, sequence (P08183 whole entry): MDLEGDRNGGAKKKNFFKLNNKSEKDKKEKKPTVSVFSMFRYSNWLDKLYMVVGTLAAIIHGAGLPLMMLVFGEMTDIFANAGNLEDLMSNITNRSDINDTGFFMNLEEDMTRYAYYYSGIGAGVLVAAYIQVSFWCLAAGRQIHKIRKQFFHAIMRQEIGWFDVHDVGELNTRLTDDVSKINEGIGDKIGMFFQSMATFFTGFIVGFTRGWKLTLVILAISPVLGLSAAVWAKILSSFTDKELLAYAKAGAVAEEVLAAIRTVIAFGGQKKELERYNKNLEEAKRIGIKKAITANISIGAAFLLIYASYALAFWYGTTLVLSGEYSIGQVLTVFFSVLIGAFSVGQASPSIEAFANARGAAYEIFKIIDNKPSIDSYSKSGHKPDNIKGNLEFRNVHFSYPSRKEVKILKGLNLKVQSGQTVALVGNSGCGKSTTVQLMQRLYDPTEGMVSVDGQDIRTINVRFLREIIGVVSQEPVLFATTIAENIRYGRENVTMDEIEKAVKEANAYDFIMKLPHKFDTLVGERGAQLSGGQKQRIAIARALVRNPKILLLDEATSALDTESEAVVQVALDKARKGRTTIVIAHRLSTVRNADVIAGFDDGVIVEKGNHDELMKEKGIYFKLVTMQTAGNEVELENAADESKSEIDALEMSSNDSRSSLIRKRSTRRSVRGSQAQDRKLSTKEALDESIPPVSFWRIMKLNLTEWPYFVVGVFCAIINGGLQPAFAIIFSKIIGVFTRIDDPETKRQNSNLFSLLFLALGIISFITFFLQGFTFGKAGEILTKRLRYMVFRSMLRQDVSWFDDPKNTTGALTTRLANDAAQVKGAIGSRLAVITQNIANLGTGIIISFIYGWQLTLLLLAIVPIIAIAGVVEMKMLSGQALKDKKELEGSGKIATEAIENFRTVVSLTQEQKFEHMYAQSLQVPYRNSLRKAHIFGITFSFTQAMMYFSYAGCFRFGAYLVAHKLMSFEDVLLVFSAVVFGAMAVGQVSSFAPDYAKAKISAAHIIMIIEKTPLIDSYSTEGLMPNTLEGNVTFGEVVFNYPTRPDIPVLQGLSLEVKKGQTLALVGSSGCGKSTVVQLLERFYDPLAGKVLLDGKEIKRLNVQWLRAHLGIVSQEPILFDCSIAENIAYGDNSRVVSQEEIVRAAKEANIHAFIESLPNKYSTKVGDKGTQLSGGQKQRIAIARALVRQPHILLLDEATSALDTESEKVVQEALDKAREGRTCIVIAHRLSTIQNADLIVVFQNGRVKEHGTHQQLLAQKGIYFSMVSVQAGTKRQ

SMILES | viability at 200 µM (S. feltiae; highest concentration (200 µM)) | IC50 (S. feltiae) | IC50 [1, 7] | IC50 [2] | FAR (fluorescence activity ratio) ([3]; 2 μM compound) | FAR Quotient (%) ([3]; 2 μM compound) | FAR (fluorescence activity ratio) ([3]; 20 μM) | FAR Quotient (%) ([3]; 20 μM) | inhibition at 200 µM (Escherichia coli) | IC50 [4] | IC50 [5] | IC50 [6] | inhibition at 200 µM (Staphylococcus carnosus) | viability at 200 µM (S. feltiae) | IC50 [1, 8] | IC50 [6, 9] | Increase in efflux pump inhibitory activity of naphthyl vs corresponding phenyl derivative [3] | P-gp inhibition relative to the reference verapamil ([3]; 20 µM) | IC50 ([6]; MRC-5 embryonal lung fibroblast cells, MTT, MRC-5 normal lung fibroblasts, read-out: Cytotoxic activity, C—MRC-5 IC50)
COc1ccc(-c2oc3ccccc3c(=O)c2CC(S(=O)(=O)C(F)(F)F)S(=O)(=O)C(F)(F)F)cc1 [Compound 1] | 30% | 23 ± 0.297 µM | > 100 µM | > 100 µM | 1.14 | 34.92% | 1.53 | 46.92% | 30% | > 100 µM | > 100 µM | > 100 µM |  |  |  |  |  |  | 
COc1ccc(-c2sc3ccccc3c(=O)c2CC(S(=O)(=O)C(F)(F)F)S(=O)(=O)C(F)(F)F)cc1 [Compound 2] | 24% | 54.98 ± 0.143 µM | > 100 µM | > 100 µM | 0.97 | 29.67% | 1.89 | 57.83% | 42% | > 100 µM | > 100 µM | > 100 µM | 47% |  |  |  |  |  | 
COc1ccc(-c2[se]c3ccccc3c(=O)c2CC(S(=O)(=O)C(F)(F)F)S(=O)(=O)C(F)(F)F)cc1 [Compound 3] |  | 41.94 ± 0.286 µM |  |  | 1.06 | 32.58% | 1.45 | 44.33% | 49% | > 100 µM | > 100 µM |  | 57% | 29% | > 100 µM | > 100 µM |  |  | 
COc1ccc2cc(-c3oc4ccccc4c(=O)c3CC(S(=O)(=O)C(F)(F)F)S(=O)(=O)C(F)(F)F)ccc2c1 [Compound 4] |  |  | > 100 µM | > 100 µM | 1.48 | 45.42% | 4.81 | 147.50% | 45% | > 100 µM | > 100 µM | > 100 µM | 37% |  |  |  | 3.14 fold |  | 
COc1ccc2cc(-c3sc4ccccc4c(=O)c3CC(S(=O)(=O)C(F)(F)F)S(=O)(=O)C(F)(F)F)ccc2c1 [Compound 5] |  |  | > 100 µM | > 100 µM | 1.95 | 59.92% | 8.61 | 264.17% | 39% | > 100 µM | > 100 µM | > 100 µM | 47% |  |  |  | 4.57 fold | 2.64 fold | 
COc1ccc2cc(-c3[se]c4ccccc4c(=O)c3CC(S(=O)(=O)C(F)(F)F)S(=O)(=O)C(F)(F)F)ccc2c1 [Compound 6, bis(triflyl) selenoflavone] |  | 80.62 ± 0.142 µM |  |  | 1.14 | 34.92% | 4.67 | 143.33% |  | > 100 µM | > 100 µM |  |  | 26% | > 100 µM | > 100 µM | 3.23 fold |  | 
COc1cccc2c1C(=O)c1c(O)c3c(c(O)c1C2=O)C[C@@](O)(C(=O)CO)C[C@@H]3O[C@H]1C[C@H](N)[C@H](O)[C@H](C)O1 [DOXO, Doxorubicin, reference compound] |  |  |  | 1.56 µM |  |  |  |  |  | 0.24 µM | 0.14 µM |  |  |  | 6.45 µM |  |  |  | > 10 µM
